# Key:
# Experiment in all cases: relative viability (nuclei count vs DMSO), 5 days (fraction); higher = more cells survive
# Etoposide + Bortezomib = compound: COc1cc([C@@H]2c3cc4c(cc3[C@@H](O[C@@H]3O[C@@H]5CO[C@@H](C)O[C@H]5[C@H](O)[C@H]3O)[C@H]3COC(=O)[C@H]23)OCO4)cc(OC)c1O [Etoposide] + CC(C)C[C@H](NC(=O)[C@H](Cc1ccccc1)NC(=O)c1cnccn1)B(O)O [Bortezomib] (partner 0.002 µM)
# Outline: (§1)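 A single step with final 0.05% Triton X-100, 1% formaldehyde and 1 ug/ml Hoechst fixed the cells and stained nuclei 5 days after treatment. Lung cancer cell lines in 1536-well plates had been treated by pin tool the day after seeding with one drug alone or a fixed anchor-drug dose plus five library-drug doses (not always all listed) in √10 steps, and nuclei were counted on 4× images. Relative viability is the ratio of nuclei in treated wells to nuclei in vehicle wells, taken as the median of duplicate plates.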
# Etoposide + Pemetrexed = compound: COc1cc([C@@H]2c3cc4c(cc3[C@@H](O[C@@H]3O[C@@H]5CO[C@@H](C)O[C@H]5[C@H](O)[C@H]3O)[C@H]3COC(=O)[C@H]23)OCO4)cc(OC)c1O [Etoposide] + Nc1nc2[nH]cc(CCc3ccc(C(=O)N[C@@H](CCC(=O)O)C(=O)O)cc3)c2c(=O)[nH]1 [Pemetrexed] (partner 0.2 µM)
# Outline: as §1
# Etoposide + Tozasertib = compound: COc1cc([C@@H]2c3cc4c(cc3[C@@H](O[C@@H]3O[C@@H]5CO[C@@H](C)O[C@H]5[C@H](O)[C@H]3O)[C@H]3COC(=O)[C@H]23)OCO4)cc(OC)c1O [Etoposide] + Cc1cc(Nc2cc(N3CCN(C)CC3)nc(Sc3ccc(NC(=O)C4CC4)cc3)n2)n[nH]1 [Tozasertib] (partner 0.1 µM)
# Outline: as §1
# Bleomycin + Dasatinib = compound: CC1=C(N=C(N=C1N)[C@H](CC(=O)N)NC[C@@H](C(=O)N)N)C(=O)N[C@@H]([C@H](C2=CN=CN2)OC3C(C(C(C(O3)CO)O)O)OC4C(C(C(C(O4)CO)O)OC(=O)N)O)C(=O)N[C@H](C)[C@H]([C@H](C)C(=O)N[C@@H]([C@@H](C)O)C(=O)NCCC5=NC(=CS5)C6=NC(=CS6)C(=O)NCCC[S+](C)C)O [Bleomycin] + Cc1nc(Nc2ncc(C(=O)Nc3c(C)cccc3Cl)s2)cc(N2CCN(CCO)CC2)n1 [Dasatinib] (partner 0.075 µM); settings: main component drawn
# Outline: as §1
Cell Line,relative viability (Etoposide + Bortezomib; first compound 0.01 µM),relative viability (Etoposide + Bortezomib; first compound 0.03162 µM),relative viability (Etoposide + Bortezomib; first compound 0.1 µM),relative viability (Etoposide + Bortezomib; first compound 0.3162 µM),relative viability (Etoposide + Bortezomib; first compound 1 µM),relative viability (Etoposide + Pemetrexed; first compound 0.01 µM),relative viability (Etoposide + Pemetrexed; first compound 0.03162 µM),relative viability (Etoposide + Pemetrexed; first compound 0.1 µM),relative viability (Etoposide + Pemetrexed; first compound 0.3162 µM),relative viability (Etoposide + Pemetrexed; first compound 1 µM),relative viability (Etoposide + Tozasertib; first compound 0.01 µM),relative viability (Etoposide + Tozasertib; first compound 0.03162 µM),relative viability (Etoposide + Tozasertib; first compound 0.1 µM),relative viability (Etoposide + Tozasertib; first compound 0.3162 µM),relative viability (Etoposide + Tozasertib; first compound 1 µM),relative viability (Bleomycin + Dasatinib; first compound 0.01 µM),relative viability (Bleomycin + Dasatinib; first compound 0.03162 µM),relative viability (Bleomycin + Dasatinib; first compound 0.1 µM),relative viability (Bleomycin + Dasatinib; first compound 0.3162 µM),relative viability (Bleomycin + Dasatinib; first compound 1 µM)
HOP-62,0.644,0.901,0.298,0.412,0.328,0.389,0.361,0.378,0.318,0.243,0.388,0.386,0.366,0.279,0.203,0.49,0.479,0.377,0.165,0.106
LC-2-ad,0.9,1.08,0.977,0.742,0.209,0.277,0.279,0.298,0.277,0.28,0.39,0.441,0.327,0.339,0.285,0.312,0.373,0.318,0.183,0.145
LCLC-97TM1,0.865,0.329,0.485,0.132,0.0671,0.176,0.196,0.168,0.18,0.118,0.201,0.2,0.208,0.19,0.144,0.553,0.576,0.619,0.208,0.123
LCLC-103H,1.1,1.24,0.93,0.956,0.978,0.447,0.477,0.523,0.473,0.469,0.427,0.574,0.459,0.526,0.35,0.382,0.448,0.418,0.316,0.214
LOU-NH91,0.563,0.502,0.498,0.435,0.375,0.403,0.414,0.469,0.359,0.346,0.713,0.673,0.566,0.554,0.341,0.562,0.391,0.448,0.306,0.251
LU99A,1.31,1.31,0.661,0.432,0.19,0.161,0.18,0.186,0.163,0.167,0.283,0.277,0.262,0.247,0.241,0.366,0.505,0.367,0.205,0.125
LXF-289,1.01,1.07,0.994,0.75,0.252,0.961,0.952,1.04,0.788,0.285,0.209,0.166,0.196,0.111,0.0978,0.19,0.228,0.197,0.077,0.0555
NCI-H23,0.919,1.15,0.516,0.317,0.215,0.659,0.697,0.472,0.411,0.216,0.344,0.333,0.29,0.201,0.163,0.535,0.552,0.321,0.148,0.167
NCI-H322M,1.27,1.22,0.994,1.17,1.07,0.604,0.603,0.625,0.587,0.524,0.484,0.47,0.423,0.441,0.425,0.241,0.26,0.262,0.243,0.263
NCI-H441,0.457,0.469,0.447,0.286,0.177,0.254,0.257,0.235,0.193,0.153,0.511,0.541,0.418,0.289,0.264,0.424,0.709,0.515,0.296,0.311
NCI-H460,0.933,0.763,0.608,0.0494,0.0267,0.0661,0.0549,0.061,0.0772,0.0604,0.396,0.369,0.338,0.0692,0.0251,0.362,0.318,0.244,0.0443,0.037
NCI-H520,0.484,0.634,0.379,0.576,0.561,0.633,0.801,0.708,0.65,0.485,0.427,0.408,,0.462,0.396,0.222,0.217,0.234,0.198,0.154
NCI-H596,0.798,1.1,,0.968,0.977,0.463,0.539,0.488,0.546,0.477,0.774,1.05,0.843,0.543,0.683,0.548,0.531,0.395,0.24,0.221
NCI-H647,0.807,1.4,0.72,0.298,0.147,0.173,0.161,0.188,0.121,0.121,0.224,0.0009,0.271,0.205,0.112,0.101,0.0923,0.0574,0.039,0.0343
NCI-H650,0.683,0.836,0.63,0.417,0.222,0.901,1.01,0.608,0.673,0.347,0.693,0.717,0.498,0.258,0.166,0.389,0.438,0.432,0.289,0.212
NCI-H661,0.735,0.828,0.531,0.543,0.276,0.863,0.984,0.849,0.858,0.625,0.342,0.374,0.332,0.323,0.353,0.741,0.657,0.623,0.262,0.242
NCI-H838,0.641,0.978,0.659,0.624,0.333,0.277,0.259,0.274,0.251,0.239,0.348,0.295,0.307,0.211,0.24,0.267,0.265,0.243,0.153,0.175
NCI-H1355,1.15,1.35,0.671,1.13,0.412,1.09,1.09,0.617,0.919,0.46,0.515,0.536,0.433,0.313,0.228,0.668,0.661,0.84,0.252,0.192
NCI-H1437,0.378,0.547,0.492,0.243,0.273,0.309,0.318,0.303,0.325,0.303,0.433,0.4,0.429,0.293,0.318,0.388,0.422,0.39,0.164,0.23
NCI-H1650,0.201,0.204,0.208,0.181,0.185,0.354,0.376,0.388,0.239,0.223,0.381,0.356,0.337,0.197,0.208,0.263,0.281,0.145,0.124,0.128
NCI-H1651,0.914,0.979,0.875,0.532,0.181,0.707,0.728,0.466,0.382,0.127,0.675,0.692,0.547,0.159,0.156,0.344,0.361,0.384,0.187,0.144
NCI-H1666,0.949,0.71,0.528,0.294,0.242,0.832,0.866,0.923,0.631,0.563,0.551,0.592,0.485,0.356,0.372,0.658,0.521,0.565,0.374,0.317
NCI-H1734,0.894,0.878,0.572,0.624,0.308,0.391,0.49,0.408,0.415,0.328,0.269,0.254,0.279,0.273,0.24,0.357,0.312,0.348,0.145,0.154
NCI-H1755,0.995,1.02,0.887,0.9,0.969,0.468,0.467,0.519,0.41,0.428,0.57,0.577,0.565,0.483,0.44,0.409,0.433,0.407,0.454,0.29
NCI-H1915,0.963,0.969,0.992,0.906,0.516,0.504,0.516,0.484,0.474,0.459,0.438,0.459,0.473,0.353,0.308,0.247,0.258,0.181,0.0914,0.0984
NCI-H1975,0.402,0.386,0.411,0.322,0.177,0.285,0.303,0.31,0.268,0.223,0.721,0.67,0.785,0.495,0.197,0.34,0.343,0.287,0.13,0.115
NCI-H1993,0.954,1.12,0.631,0.919,0.473,,0.662,0.502,0.543,0.399,0.634,0.506,0.576,0.495,0.55,0.548,0.604,0.597,0.462,0.464
NCI-H2009,0.975,1.1,0.933,0.628,0.241,0.976,0.957,1.12,0.703,0.57,0.767,0.745,0.782,0.557,0.431,0.298,0.297,0.311,0.21,0.196
NCI-H2023,0.975,1.15,0.456,0.46,0.123,0.241,0.272,0.182,0.156,0.143,0.308,0.337,0.429,0.291,0.109,0.345,0.316,0.302,0.163,0.129

# Source: the supplement of paper PMC10307832
